Assay results from ChEMBL document CHEMBL1629601, “In vitro susceptibility of field isolates of Leishmania donovani to Miltefosine and amphotericin B: correlation with sodium antimony gluconate susceptibility and implications for treatment in areas of endemicity” (2009).
≈ marks a conversion by molar mass, not a printed value.

What was measured:
Type in all cases: functional
Leishmania donovani [1] = assay: Antimicrobial activity against Leishmania donovani LdAG83 promastigote; settings: read-out: ED50 (the source's name)
Leishmania donovani [2] = assay: Antimicrobial activity against Leishmania donovani K59 promastigote; settings: read-out: ED50 (the source's name)
Leishmania donovani [3] = assay: Antimicrobial activity against Leishmania donovani K80 promastigote; settings: read-out: ED50 (the source's name)
Leishmania donovani [4] = assay: Antimicrobial activity against Leishmania donovani K481 promastigote; settings: read-out: ED50 (the source's name)
Leishmania donovani [5] = assay: Antimicrobial activity against Leishmania donovani K133 amastigote
Leishmania donovani [6] = assay: Antimicrobial activity against Leishmania donovani K59 amastigote
Leishmania donovani [7] = assay: Antimicrobial activity against Leishmania donovani K132 amastigote
Leishmania donovani [8] = assay: Antimicrobial activity against Leishmania donovani K131 amastigote
Leishmania donovani [9] = assay: Antimicrobial activity against Leishmania donovani K481 amastigote
Leishmania donovani [10] = assay: Antimicrobial activity against Leishmania donovani K133 promastigote; settings: read-out: ED50 (the source's name)
Leishmania donovani [11] = assay: Antimicrobial activity against Leishmania donovani K498 promastigote; settings: read-out: ED50 (the source's name)
Leishmania donovani [12] = assay: Antimicrobial activity against Leishmania donovani K435 amastigote
Leishmania donovani [13] = assay: Antimicrobial activity against Leishmania donovani K80 amastigote
Leishmania donovani [14] = assay: Antimicrobial activity against Leishmania donovani K111 promastigote; settings: read-out: ED50 (the source's name)
Leishmania donovani [15] = assay: Antimicrobial activity against Leishmania donovani K135 amastigote
Leishmania donovani [16] = assay: Antimicrobial activity against Leishmania donovani K192 promastigote; settings: read-out: ED50 (the source's name)
Leishmania donovani [17] = assay: Antimicrobial activity against Leishmania donovani K251 amastigote
Leishmania donovani [18] = assay: Antimicrobial activity against Leishmania donovani K429 amastigote
Leishmania donovani [19] = assay: Antimicrobial activity against Leishmania donovani K439 amastigote
Leishmania donovani [20] = assay: Antimicrobial activity against Leishmania donovani K149 amastigote
Leishmania donovani [21] = assay: Antimicrobial activity against Leishmania donovani K417 promastigote; settings: read-out: ED50 (the source's name)
Leishmania donovani [22] = assay: Antimicrobial activity against Leishmania donovani K192 amastigote
Leishmania donovani [23] = assay: Antimicrobial activity against Leishmania donovani K149 promastigote; settings: read-out: ED50 (the source's name)
Leishmania donovani [24] = assay: Antimicrobial activity against Leishmania donovani K251 promastigote; settings: read-out: ED50 (the source's name)
Leishmania donovani [25] = assay: Antimicrobial activity against Leishmania donovani K509 amastigote
Leishmania donovani [26] = assay: Antimicrobial activity against Leishmania donovani K417 amastigote
Leishmania donovani [27] = assay: Antimicrobial activity against Leishmania donovani K131 promastigote; settings: read-out: ED50 (the source's name)
Leishmania donovani [28] = assay: Antimicrobial activity against Leishmania donovani K429 promastigote; settings: read-out: ED50 (the source's name)
Leishmania donovani [29] = assay: Antimicrobial activity against Leishmania donovani K216 promastigote; settings: read-out: ED50 (the source's name)
Leishmania donovani [30] = assay: Antimicrobial activity against Leishmania donovani K135 promastigote; settings: read-out: ED50 (the source's name)
Leishmania donovani [31] = assay: Antimicrobial activity against Leishmania donovani K216 amastigote
Leishmania donovani [32] = assay: Antimicrobial activity against Leishmania donovani LdAG83 amastigote
Leishmania donovani [33] = assay: Antimicrobial activity against Leishmania donovani K498 amastigote
Leishmania donovani [34] = assay: Antimicrobial activity against Leishmania donovani K111 amastigote
Leishmania donovani [35] = assay: Antimicrobial activity against Leishmania donovani K439 promastigote; settings: read-out: ED50 (the source's name)
Leishmania donovani [36] = assay: Antimicrobial activity against Leishmania donovani K516 promastigote; settings: read-out: ED50 (the source's name)
Leishmania donovani [37] = assay: Antimicrobial activity against Leishmania donovani K435 promastigote; settings: read-out: ED50 (the source's name)
Leishmania donovani [38] = assay: Antimicrobial activity against Leishmania donovani K516 amastigote
Leishmania donovani [39] = assay: Antimicrobial activity against Leishmania donovani K132 promastigote; settings: read-out: ED50 (the source's name)
[40] = read-out: ED50 (the source's name)

C[C@@H]1[C@H](O)[C@@H](C)/C=C/C=C/C=C/C=C/C=C/C=C/C=C/[C@H](O[C@@H]2O[C@H](C)[C@@H](O)[C@H](N)[C@@H]2O)C[C@@H]2O[C@](O)(C[C@@H](O)C[C@@H](O)[C@H](O)CC[C@@H](O)C[C@@H](O)CC(=O)O[C@H]1C)C[C@H](O)[C@H]2C(=O)O [AMPHOTERICIN B]
EC50 (Leishmania donovani [1]): 0.023 µg/mL (≈ 0.0249 µM) | EC50 (Leishmania donovani [2]): 0.5 µg/mL (≈ 0.541 µM) | EC50 (Leishmania donovani [3]): 0.5 µg/mL (≈ 0.541 µM) | EC50 (Leishmania donovani [4]): 0.69 µg/mL (≈ 0.747 µM) | EC50 (Leishmania donovani [5]; [40]): 0.21 µg/mL (≈ 0.227 µM) | EC50 (Leishmania donovani [6]; [40]): 0.18 µg/mL (≈ 0.195 µM) | EC50 (Leishmania donovani [7]; [40]): 0.22 µg/mL (≈ 0.238 µM) | EC50 (Leishmania donovani [8]; [40]): 0.35 µg/mL (≈ 0.379 µM) | EC50 (Leishmania donovani [9]; [40]): 0.55 µg/mL (≈ 0.595 µM) | EC50 (Leishmania donovani [10]): 0.65 µg/mL (≈ 0.703 µM) | EC50 (Leishmania donovani [11]): 1.16 µg/mL (≈ 1.26 µM) | EC50 (Leishmania donovani [12]; [40]): 0.17 µg/mL (≈ 0.184 µM) | EC50 (Leishmania donovani [13]; [40]): 0.18 µg/mL (≈ 0.195 µM) | EC50 (Leishmania donovani [14]): 1.02 µg/mL (≈ 1.1 µM) | EC50 (Leishmania donovani [15]; [40]): 0.25 µg/mL (≈ 0.271 µM) | EC50 (Leishmania donovani [16]): 0.78 µg/mL (≈ 0.844 µM) | EC50 (Leishmania donovani [17]; [40]): 0.55 µg/mL (≈ 0.595 µM) | EC50 (Leishmania donovani [18]; [40]): 0.37 µg/mL (≈ 0.4 µM) | EC50 (Leishmania donovani [19]; [40]): 0.77 µg/mL (≈ 0.833 µM) | EC50 (Leishmania donovani [20]; [40]): 0.28 µg/mL (≈ 0.303 µM) | EC50 (Leishmania donovani [21]): 0.69 µg/mL (≈ 0.747 µM) | EC50 (Leishmania donovani [22]; [40]): 0.67 µg/mL (≈ 0.725 µM) | EC50 (Leishmania donovani [23]): 1.46 µg/mL (≈ 1.58 µM) | EC50 (Leishmania donovani [24]): 1.42 µg/mL (≈ 1.54 µM) | EC50 (Leishmania donovani [25]; [40]): 0.65 µg/mL (≈ 0.703 µM) | EC50 (Leishmania donovani [26]; [40]): 0.44 µg/mL (≈ 0.476 µM) | EC50 (Leishmania donovani [27]): 0.43 µg/mL (≈ 0.465 µM) | EC50 (Leishmania donovani [28]): 1.34 µg/mL (≈ 1.45 µM) | EC50 (Leishmania donovani [29]): 0.52 µg/mL (≈ 0.563 µM) | EC50 (Leishmania donovani [30]): 0.31 µg/mL (≈ 0.335 µM) | EC50 (Leishmania donovani [31]; [40]): 0.25 µg/mL (≈ 0.271 µM) | EC50 (Leishmania donovani [32]; [40]): 0.017 µg/mL (≈ 0.0184 µM) | EC50 (Leishmania donovani [33]; [40]): 0.54 µg/mL (≈ 0.584 µM) | EC50 (Leishmania donovani [34]; [40]): 0.2 µg/mL (≈ 0.216 µM) | EC50 (Leishmania donovani [35]): 1.62 µg/mL (≈ 1.75 µM) | EC50 (Leishmania donovani [36]): 1.26 µg/mL (≈ 1.36 µM) | EC50 (Leishmania donovani [37]): 0.57 µg/mL (≈ 0.617 µM) | EC50 (Leishmania donovani [38]; [40]): 0.62 µg/mL (≈ 0.671 µM) | EC50 (Leishmania donovani [39]): 1.22 µg/mL (≈ 1.32 µM)

D-gluconic acid 2,4:2',4'-O-[oxybis(oxidostibylidyne)]bis-trisodium salt nonahydrate
ED50 (Leishmania donovani [5]): 3.45 µg/mL | ED50 (Leishmania donovani [6]): 14.7 µg/mL | ED50 (Leishmania donovani [7]): 3.95 µg/mL | ED50 (Leishmania donovani [8]): 19.4 µg/mL | ED50 (Leishmania donovani [9]): 17.5 µg/mL | ED50 (Leishmania donovani [12]): 11.8 µg/mL | ED50 (Leishmania donovani [13]): 10.4 µg/mL | ED50 (Leishmania donovani [15]): 4.22 µg/mL | ED50 (Leishmania donovani [17]): 11.8 µg/mL | ED50 (Leishmania donovani [18]): 13.8 µg/mL | ED50 (Leishmania donovani [19]): 12.9 µg/mL | ED50 (Leishmania donovani [20]): 15.7 µg/mL | ED50 (Leishmania donovani [22]): 20.3 µg/mL | ED50 (Leishmania donovani [25]): 16.8 µg/mL | ED50 (Leishmania donovani [26]): 14.7 µg/mL | ED50 (Leishmania donovani [31]): 2.14 µg/mL | ED50 (Leishmania donovani [32]): 2.06 µg/mL | ED50 (Leishmania donovani [33]): 15.8 µg/mL | ED50 (Leishmania donovani [34]): 5.63 µg/mL | ED50 (Leishmania donovani [38]): 16.5 µg/mL
